pIC50, pKi: −log10 of the molar value. Structures can show the parent of a compound that is named as a salt.
How the values were obtained:
Assay type in all cases: biochemical
resistant forms of EPSPS = assay: EPSPS assays of plant extracts in the presence of glyphosate, resistant enzyme; conditions: 0.1 mM N-(phosphonomethyl)glycine; 0.1 mM 14C-PEP; 0.75 mM shikimate-3-Pi; estimated
Description: (§1) Assays are carried out generally according to the radiochemical method of Padgette et al 1987 (Archives of Biochemistry and Biophysics, 258(2) 564–573) with K+ions as the major species of cationic counterion. Assays in a total volume of 50 μl, in 50 mM Hepes(KOH) pH 7.0 at 25° C., contain purified enzyme or plant extract (see below) diluted appropriately in Hepes pH 7.0 containing 10% glycerol, and 5 mM DTT, ^14C PEP either as variable-substrate (for kinetic determinations) or fixed at 100 or 250 μM and shikimate 3 Phosphate (K+ salt) at 0.75 or 2 mM as indicated. Optionally, for assays of crude plant extracts, assays also contain 5 mM KF and/or 0.1 mM ammonium molybdate. Assays are started with the addition of ^14C phosphoenolpyruvate (cyclohexylammonium+salt) and stopped after 2–10 minutes (2 minutes is preferable) with the addition of 50 μl of a solution of 1 part 1M acetic acid and 9 parts ethanol. […] Apparent Km and Vmax values are determined by least squares fit to a hyperbola with simple weighting using the Grafit 3.09b from Erithacus Software Ltd. Km values are generally ascertained using 8–9 concentrations of variable substrate ranging from Km/2–10 Km and triplicate points. […]

[1] = system: sensitive w/t form of EPSPS; assay: EPSPS assays of plant extracts in the presence of glyphosate, sensitive w/t enzyme; conditions: 0.1 mM N-(phosphonomethyl)glycine; 0.1 mM 14C-PEP; 0.75 mM shikimate-3-Pi
Description: as §1

[2] = target: T1, mutant Brassica napus EPSPS (Brassica napus, UniProt P17688, P178S/T174I); assay: Radiochemical EPSPS assay of purified mutant Brassica napus EPSPS
T1 construct: The mature mutant Brassica napus EPSPS protein is purified; initiating Met (N); made in house; host or cells: E. coli BL21 (DE3) RP, vector pET24a
T1 sequence (P17688 73-516 T174I/P178S): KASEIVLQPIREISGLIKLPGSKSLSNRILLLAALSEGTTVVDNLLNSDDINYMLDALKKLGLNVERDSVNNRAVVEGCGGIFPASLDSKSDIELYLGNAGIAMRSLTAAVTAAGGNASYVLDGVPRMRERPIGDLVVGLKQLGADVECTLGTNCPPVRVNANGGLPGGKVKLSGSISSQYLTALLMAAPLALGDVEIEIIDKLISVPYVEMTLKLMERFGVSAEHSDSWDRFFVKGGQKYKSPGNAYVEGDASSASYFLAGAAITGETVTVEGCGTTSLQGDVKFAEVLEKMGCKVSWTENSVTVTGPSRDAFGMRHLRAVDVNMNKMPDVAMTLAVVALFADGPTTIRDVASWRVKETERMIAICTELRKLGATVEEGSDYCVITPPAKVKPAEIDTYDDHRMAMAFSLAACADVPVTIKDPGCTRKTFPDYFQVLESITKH
Description: as §1, with “^14C PEP either as variable-substrate (for kinetic determinations) or fixed at 100 or 250 μM and shikimate 3 Phosphate” left out
The mature mutant Brassica napus EPSPS protein is purified at ˜4 C as follows. […] EPSPS-containing fractions detected on the basis of EPSPS enzyme activity are combined and loaded onto an xk16 column containing 20 ml of HP Q-Sepharose equilibrated with S200 buffer. […]

| Compound | inhibition of resistant forms of EPSPS (resistant forms of EPSPS) [%] | inhibition of sensitive w/t EPSPS [1] [%] | pIC50 ([2]; at 40 μM PEP, 2 mM shikimate-3-Pi, purified enzyme, read-out: IC50 value for the potassium salt of glyphosate) | pKi ([2]; purified mutant EPSPS, read-out: estimated Ki value for potassium glyphosate) |
| --- | --- | --- | --- | --- |
| O=C(O)CNCP(=O)(O)O [N-(phosphonomethyl)glycine] | < 8.5 | > 98 | – | – |
| O=C(O)CNCP(=O)(O)O [potassium salt of glyphosate] | – | – | ~3.22 | ~3.35 |

From US7169970B2, “Herbicide resistant plants” (priority 2000, dated 2007)
